Experimental data as given in patent publication US7648966B2, “Mannose-6-phosphonate compounds for the treatment of inflammatory diseases” (Pharmaxis Pty Limited, priority 2003, dated 2010).

Legend:
[1] = test system: MBP-specific T lymphocyte cell lines migrating across rat brain endothelial cell monolayer; assay: Inhibition of T-lymphocyte migration across rat brain endothelial cell layer (Transwell, 51Cr-labeled cells); type: cell-based, Lewis rats; details: 6 hours
Procedure: Preparation of Brain Endothelial Cells (ECs)
Vascular ECs were isolated from rat brain capillaries of 6 to 8 week old Lewis rats according to the method of Risau, W et al., 1990, J. Cell Biol. 110:1757-1766 (which is incorporated herein by reference). Colonies of ECs were purified from astroglial cells and pericytes using anti-Thy1.1-antibody and complement-mediated lysis to remove unwanted Thy1.1+ cells.
The EC colonies were grown, using conventional methods, in Dulbecco's Modified Eagle's Medium (DMEM)-high glucose, supplemented, with 20% fetal calf serum (FCS), glutamine, pyruvate, nonessential amino acids, HEPES buffer and antibiotics (kanamycin, amphotericin), and heparin (all from GIBCO). Cultures were supplemented with 150 μg/ml “endothelial growth supplement” from Collaborative Biomedical Products. Upon reaching confluence, EC cultures were washed with 0.2% EDTA in phosphate buffered saline (PBS), trypsinized (Trypsin-EDTA, 0.1% final concentration), washed and re-treated with anti-Thy1.1 antibody for 40 min, washed and incubated with complement sufficient to lyse all Thy1.1+ cells (Behringwerke, AG, Marburg, Germany) at room temperature.
ECs were then plated on Matrigel®-coated 6.5 mm Transwells, […] (Corning Costar Corporation, Cambridge, Mass.). Presence of ECs and confluence of the monolayer were checked by measuring the electrical resistance (World Precision Instruments, New Haven, U.S.A., model EVOM-G) and by staining with FITC-labeled phalloidin (Sigma).
Myelin Basic Protein (MBP)-Specific T Cell Lines
To study the effect of agents of the present invention on T lymphocyte migration, MBP-specific T lymphocyte cell lines were generated according to the method of Ben-Nun et al., Europ. J. Immunol. 11:195-199 (1981); incorporated herein by reference) starting with lymphocytes from the LNs of Lewis rats that had been immunized with MBP in complete Freund's adjuvant (CFA). These cells were used for migration studies during the first 4 days of their propagation in IL-2-containing medium, following MBP restimulation in the presence of antigen-presenting cells (irradiated spleen or thymus cells from normal Lewis rats).
These stimulated T lymphocytes were radiolabeled with ^51Cr (Na^51Cr04, 37 MBq/ml, Amersham, UK) for 30 minutes at 37° C. with occasional agitation, they were then washed three times with DMEM and placed into the upper chamber of the Transwells at 5×10^5 cells in 100 μl of “migration medium.” Test and control substance were included in the upper wells at final concentrations of 0.1, 1 and 10 mM. Cell migration was assessed visually by light microscopy to gauge progress of the experiment. The experiment was terminated after 6 hours, whereupon the undersurface of the membrane filters were rinsed twice with 100 μl of ice-cold PBS-0.2% EDTA and combined with the medium of the lower chamber of the well. The combined material was counted for radioactivity in a gamma counter (Packard Auto-Gamma 5650 (Downer's Grove Ill., USA) gamma counter. Each “treatment” group was run in triplicate (test agent, control agent (glucose 6-phosphate) and no treatment).
Inhibition values are in comparison with the negative control.

[2] = test system: 51Cr-labeled T lymphocyte migration into the spleen; assay: Inhibition of lymphocyte migration into lymphoid tissue (spleen) in vivo; set-up: species or system Balb/c mice; details: 5 mg per mouse iv with labeled cells; spleens removed 1.5 hours after injection; vs negative controls
Procedure: Lymphocytes were obtained from spleens of 6-8 week old female specific pathogen-free Balb/c mice (19-21 g). Single cell suspensions prepared by conventional means (pushing through a stainless steel screen). Red blood cells were lysed by treating with a solution of bicarbonate buffered ammonium chloride-EDTA (pH 7.3) and the preparation strained through a Falcon 2350 cell strainer. All cell preparative steps were performed on ice. Cell were suspended in a conventional lymphocyte culture medium (DMEM plus glucose, folic acid, L-asparagine, sodium bicarbonate, L-glutamine, sodium pyruvate, HEPES, 2-mercaptoethanol, penicillin, streptomycin, neomycin, and 2% FCS).
B lymphocytes were depleted by suspending the cells in purified rat anti-mouse CD45/B220 antibody (RA3-6B2 clone; PharMingen, USA) at a concentration of 4×10^7 cells/ml and incubated on ice for 20 minutes. An equal volume of culture medium (as above) was added and the cells centrifuged (200×g) and resuspended at a concentration of 10^7 cells/ml in BioMag goat ant-rat IgG (H&L) (“GARIG”) conjugated to magnetic beads (Bio Mag; Perseptive Diagnostics, Polysciences, Inc., USA). Following a 20 minute incubation on ice, with agitation every 5 minutes, cells binding to the GARIG/anti-CD45/B220 antibody complex were removed using magnetic separation (Dynal MPC-6, Dynal, USA). This procedure was repeated 4 times, resulting in a cell population containing approximately 80-90% T lymphocytes (determined by FACS analysis).
The cells were then washed in Hanks balanced salt solution (HBSS), resuspended in 5 ml of HBSS, and radiolabeled with ^51Cr for 30 minutes at 37° C. (as described above). The labeled cells were washed in PBS, centrifuged (200×g), and a portion were resuspended at a concentration of 3×10^7 cells/ml in either PBS (negative control) or PBS containing phenyl mannoside 6-phosphate (25 mg/ml in PBS; positive control) or PBS containing the test compound (25 mg/ml), and stored on ice. Cell viability was confirmed throughout the procedures by trypan blue exclusion. Balb/c mice were injected intravenously (iv) into the lateral tail vein with 0.2 ml containing 6×10^6 labeled lymphocytes and 0.2 ml of either PBS (negative control), 5 mg positive control or 5 mg test compound. All groups of mice were weight matched (±0.5 g).
Spleens from recipient mice were removed 1.5 hours after injection, and the cell-associated radioactivity was determined using a gamma counter (as above). Results of inhibition of lymphocyte migration into the spleen were expressed as a percentage reduction in the CPM of the spleens from treated animals compared with negative controls.
The phosphono-mannoside compounds of the present invention and their relative inhibition of lymphocyte migration in vivo (compared to negative controls) are presented in Table 2.

[3] = Tested for pharmaceutical effectiveness (test not specified)
Procedure: In a similar manner to the foregoing procedure and using the appropriate reagents, the following compounds were prepared.

[4] = 10 mM in upper well, compared with negative control

Row | Compound | % inhibition (±SEM) of T cell migration [1, 4] [%] | % Inhibition of lymphocyte migration into spleens [2] [%] | pharmaceutical effectiveness as defined herein [3] | inhibition at 10000 µM ([1]; Rattus norvegicus, T-cell, 10 mM in upper well, compared with negative control, read-out: % inhibition (±SEM) of T cell migration) [%] | migration value compared with no treatment ([1]; control agent)
1 | 1-(2,4,6-trimethylphenyl)-6-phosphono-manoside | 80 ± 4 | 85.5 | – | – | –
2 | 1-(2-methyl,4-chlorophenyl)-6-phosphono-mannoside | 65 ± 4 | 45.0 | – | – | –
3 | 1-(2-methyl,4-fluorophenyl)-6-phosphonomannoside | 53 ± 2 | 68.0 | – | – | –
4 | 1-(2-methyl,4-trifluoromethyl)-6-phosphonomannoside | 88 ± 3 | 87.3 | pharmaceutically effective | – | –
5 | O=C[C@H](O)[C@@H](O)[C@H](O)[C@H](O)COP(=O)(O)O [glucose-6-phosphate, reference compound] | – | – | – | 0 | not statistically different from no treatment
6 | O=P(O)(O)OC[C@H]1OC(Oc2ccccc2)[C@@H](O)[C@@H](O)[C@@H]1O (stereo partly drawn) [positive control compound, phenyl mannoside 6-phosphate, reference compound] | – | 70.5 | – | – | –
